Measurements as given in ChEMBL document CHEMBL5537159, “Discovery and SAR of JTE-151: A Novel RORγ Inhibitor for Clinical Development” (J Med Chem, 2024).
Active and inactive are the calls of the source. No cut-off for these calls is given here.

Legend:
[1] = Metabolic stability in human liver microsomes assessed as compound remaining at 5 umol/L measured after 60 mins by UPLC/MS analysis; assay type: ADME, Microsome; conditions: dose 5 µmol/L, read-out: Stability
[2] = Total body clearance in CD(SD) rat at 1 mg/kg, iv administered as single dose and measured after 24 hrs; assay type: ADME, organism-based; conditions: in vivo
[3] = Volume of distribution at steady state in CD(SD) rat at 1 mg/kg, iv administered as single dose and measured after 24 hrs; assay type: ADME, organism-based; conditions: in vivo, read-out: Vdss
[4] = AUCinfinity in C57BL/6J mouse at 3 mg/kg, po administered as single dose and measured after 24 hrs; assay type: ADME, organism-based; conditions: in vivo
[5] = MRT in C57BL/6J mouse at 3 mg/kg, po administered as single dose and measured after 24 hrs; assay type: ADME, organism-based; conditions: in vivo
[6] = Oral bioavailability in Beagle dog at 3 mg/kg administered as single dose and measured after 24 hrs; assay type: ADME, organism-based, Canis lupus familiaris; conditions: in vivo
[7] = Selectivity ratio of antagonist activity at human SF1 to inhibition of RORgamma (unknown origin)
[8] = Selectivity ratio of antagonist activity at human PR to inhibition of RORgamma (unknown origin)
[9] = Selectivity ratio of antagonist activity at human PPARalpha to inhibition of RORgamma (unknown origin)
[10] = Selectivity ratio of antagonist activity at human PPARdelta to inhibition of RORgamma (unknown origin)
[11] = Selectivity ratio of antagonist activity at human PPARgamma to inhibition of RORgamma (unknown origin)
[12] = Selectivity ratio of agonist activity at human PR to inhibition of RORgamma (unknown origin)
[13] = Selectivity ratio of agonist activity at human FXR to inhibition of RORgamma (unknown origin)
[14] = Selectivity ratio of agonist activity at human PPARdelta to inhibition of RORgamma (unknown origin)
Adenosine receptor A1 = Adenosine receptor A1 (Homo sapiens, UniProt P30542); assay: Inhibition of human Adenosine A1 receptor
Adenosine receptor A1, sequence (P30542 whole entry): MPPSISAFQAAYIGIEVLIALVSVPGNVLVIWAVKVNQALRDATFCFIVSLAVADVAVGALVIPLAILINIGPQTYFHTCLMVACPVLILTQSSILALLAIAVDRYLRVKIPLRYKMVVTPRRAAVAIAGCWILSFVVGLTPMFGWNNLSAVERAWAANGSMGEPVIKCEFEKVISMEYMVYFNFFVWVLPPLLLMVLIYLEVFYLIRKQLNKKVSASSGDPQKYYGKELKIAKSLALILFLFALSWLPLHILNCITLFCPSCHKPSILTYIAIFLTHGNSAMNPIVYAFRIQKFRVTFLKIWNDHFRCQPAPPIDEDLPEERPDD

[15] = target: Adrenergic receptor alpha-1 (Rattus norvegicus, UniProt P15823+P23944+P43140); assay: Inhibition of rat adrenergic alpha1 receptor; assay type: protein assay
[16] = target: Beta-2 adrenergic receptor (Homo sapiens, UniProt P07550); assay: Inhibition of human adrenergic beta2 receptor
[17] = target: Beta-3 adrenergic receptor (Homo sapiens, UniProt P13945); assay: Inhibition of human adrenergic beta3 receptor
Beta-3 adrenergic receptor, sequence (P13945 whole entry): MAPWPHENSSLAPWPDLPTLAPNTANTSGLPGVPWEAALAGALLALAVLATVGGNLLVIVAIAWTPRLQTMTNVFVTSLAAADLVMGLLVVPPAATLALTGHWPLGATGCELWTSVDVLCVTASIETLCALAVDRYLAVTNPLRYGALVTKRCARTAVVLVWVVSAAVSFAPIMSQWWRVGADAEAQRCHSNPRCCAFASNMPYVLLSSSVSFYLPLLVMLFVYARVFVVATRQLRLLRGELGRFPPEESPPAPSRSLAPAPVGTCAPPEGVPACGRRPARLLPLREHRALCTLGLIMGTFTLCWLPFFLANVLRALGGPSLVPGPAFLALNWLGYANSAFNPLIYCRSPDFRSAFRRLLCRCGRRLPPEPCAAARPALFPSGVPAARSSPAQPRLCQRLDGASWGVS

D(1A) dopamine receptor = D(1A) dopamine receptor (Homo sapiens, UniProt P21728); assay: Inhibition of human dopamine D1 receptor
D(1A) dopamine receptor, sequence (P21728 whole entry): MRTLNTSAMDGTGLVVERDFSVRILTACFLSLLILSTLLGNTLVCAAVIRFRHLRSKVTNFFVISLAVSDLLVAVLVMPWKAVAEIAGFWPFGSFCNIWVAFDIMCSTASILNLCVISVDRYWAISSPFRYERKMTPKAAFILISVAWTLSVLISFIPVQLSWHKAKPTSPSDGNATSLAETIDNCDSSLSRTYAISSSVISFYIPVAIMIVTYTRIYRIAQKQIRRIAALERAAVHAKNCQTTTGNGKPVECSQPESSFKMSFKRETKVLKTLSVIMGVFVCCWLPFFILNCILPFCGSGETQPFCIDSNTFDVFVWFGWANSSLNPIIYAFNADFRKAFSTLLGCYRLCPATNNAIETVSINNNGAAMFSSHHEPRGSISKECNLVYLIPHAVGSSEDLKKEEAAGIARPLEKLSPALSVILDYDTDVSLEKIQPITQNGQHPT

Histamine H2 receptor = Histamine H2 receptor (Homo sapiens, UniProt P25021); assay: Inhibition of human histamine H2 receptor
Histamine H2 receptor, sequence (P25021 whole entry): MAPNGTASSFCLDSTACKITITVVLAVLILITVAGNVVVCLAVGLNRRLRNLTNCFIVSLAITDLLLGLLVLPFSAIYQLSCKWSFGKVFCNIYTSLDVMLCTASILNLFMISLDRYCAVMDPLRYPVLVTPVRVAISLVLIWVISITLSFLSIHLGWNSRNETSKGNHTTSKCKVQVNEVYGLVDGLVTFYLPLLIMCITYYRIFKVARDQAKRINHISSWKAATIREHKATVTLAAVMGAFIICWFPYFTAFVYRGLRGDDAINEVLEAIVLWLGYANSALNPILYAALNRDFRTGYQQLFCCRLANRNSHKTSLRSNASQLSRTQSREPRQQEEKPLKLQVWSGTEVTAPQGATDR

[18] = target: 5-hydroxytryptamine receptor 2A (Homo sapiens, UniProt P28223); assay: Inhibition of human 5-HT2A receptor
5-hydroxytryptamine receptor 2A, sequence (P28223 whole entry): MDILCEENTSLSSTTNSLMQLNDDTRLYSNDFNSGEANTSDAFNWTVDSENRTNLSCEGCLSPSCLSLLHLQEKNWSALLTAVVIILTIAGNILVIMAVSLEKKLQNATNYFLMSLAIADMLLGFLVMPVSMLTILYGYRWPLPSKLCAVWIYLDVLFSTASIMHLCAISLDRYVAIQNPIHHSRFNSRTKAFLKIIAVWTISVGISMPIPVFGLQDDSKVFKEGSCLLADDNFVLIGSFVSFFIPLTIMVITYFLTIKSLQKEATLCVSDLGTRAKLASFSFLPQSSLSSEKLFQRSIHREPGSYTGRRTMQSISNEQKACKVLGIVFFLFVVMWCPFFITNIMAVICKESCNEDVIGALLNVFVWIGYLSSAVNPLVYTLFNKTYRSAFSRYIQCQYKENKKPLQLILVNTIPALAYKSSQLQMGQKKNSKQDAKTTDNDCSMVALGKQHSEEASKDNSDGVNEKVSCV

[19] = target: 5-hydroxytryptamine receptor 3A (Homo sapiens, UniProt P46098); assay: Inhibition of human 5-HT3 receptor
5-hydroxytryptamine receptor 3A, sequence (P46098 whole entry): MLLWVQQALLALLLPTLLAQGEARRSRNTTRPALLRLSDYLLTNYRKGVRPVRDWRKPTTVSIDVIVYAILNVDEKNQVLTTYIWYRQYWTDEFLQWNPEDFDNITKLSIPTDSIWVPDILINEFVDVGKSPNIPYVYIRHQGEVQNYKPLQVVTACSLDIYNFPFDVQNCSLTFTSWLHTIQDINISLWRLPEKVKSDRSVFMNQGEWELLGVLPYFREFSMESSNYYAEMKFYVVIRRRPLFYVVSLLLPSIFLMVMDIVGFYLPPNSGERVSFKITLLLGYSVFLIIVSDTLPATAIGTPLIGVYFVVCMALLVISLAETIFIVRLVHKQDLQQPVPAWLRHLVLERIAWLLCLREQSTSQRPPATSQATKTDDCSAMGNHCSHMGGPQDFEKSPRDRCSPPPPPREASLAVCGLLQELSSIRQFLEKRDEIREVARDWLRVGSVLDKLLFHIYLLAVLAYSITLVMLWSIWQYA

[20] = Inhibition of rat nitric oxide synthase
Cytochrome P450 2C19 = Cytochrome P450 2C19 (Homo sapiens, UniProt P33261); assay: Inhibition of CYP2C19 in human liver microsomes; assay type: ADME, Microsome
Cytochrome P450 2C19, sequence (P33261 whole entry): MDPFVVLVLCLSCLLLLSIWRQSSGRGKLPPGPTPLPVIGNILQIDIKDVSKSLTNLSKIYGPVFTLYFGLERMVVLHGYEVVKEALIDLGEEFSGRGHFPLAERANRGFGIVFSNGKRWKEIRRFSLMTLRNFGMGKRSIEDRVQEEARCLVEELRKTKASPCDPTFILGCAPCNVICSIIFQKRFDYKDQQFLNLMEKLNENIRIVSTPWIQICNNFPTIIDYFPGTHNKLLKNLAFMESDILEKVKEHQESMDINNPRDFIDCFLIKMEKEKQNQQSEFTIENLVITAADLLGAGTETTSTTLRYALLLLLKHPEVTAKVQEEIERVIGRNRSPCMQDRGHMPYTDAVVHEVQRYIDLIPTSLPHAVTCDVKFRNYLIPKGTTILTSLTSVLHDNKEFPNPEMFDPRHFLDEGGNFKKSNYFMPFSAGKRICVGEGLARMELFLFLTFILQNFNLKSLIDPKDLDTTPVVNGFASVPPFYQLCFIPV

Cytochrome P450 3A4 [21] = target: T1, Cytochrome P450 3A4 (Homo sapiens, UniProt P08684); assay: Inhibition of CYP3A4 in human liver microsomes using testosterone as substrate; assay type: ADME, Microsome
T1 sequence (P08684 whole entry): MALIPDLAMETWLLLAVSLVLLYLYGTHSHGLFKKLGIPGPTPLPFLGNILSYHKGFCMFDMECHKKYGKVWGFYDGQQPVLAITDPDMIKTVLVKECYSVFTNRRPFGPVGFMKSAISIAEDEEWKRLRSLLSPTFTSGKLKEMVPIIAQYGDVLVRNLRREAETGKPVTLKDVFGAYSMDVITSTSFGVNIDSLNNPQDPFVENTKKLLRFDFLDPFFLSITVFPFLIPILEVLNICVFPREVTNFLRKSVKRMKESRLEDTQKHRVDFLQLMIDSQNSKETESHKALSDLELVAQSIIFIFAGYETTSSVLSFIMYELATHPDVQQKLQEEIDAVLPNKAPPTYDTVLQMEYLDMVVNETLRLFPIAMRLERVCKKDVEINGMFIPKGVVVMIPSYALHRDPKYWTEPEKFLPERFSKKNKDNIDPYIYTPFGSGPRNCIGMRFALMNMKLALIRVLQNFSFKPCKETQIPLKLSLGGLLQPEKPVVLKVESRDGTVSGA

Cytochrome P450 3A4 [22] = target: T1, Cytochrome P450 3A4; assay: Inhibition of CYP3A4 in human liver microsomes using midazolam as substrate; assay type: ADME, Microsome
Mus musculus = assay: Anti-inflammatory activity in complete Freund's adjuvant/MOG (35 to 55 residues)/pertussis toxin-induced experimental autoimmune encephalomyelitis C57BL/6 mouse model assessed as reduction in Th17 cell differentiation by measuring reduction in number of Th17 cells in spinal cords at 3 to 10 mg/kg, po administered once daily for 17 days and measured on day 18 by flow cytometry analysis; assay type: functional, organism-based; conditions: dose 3-10 mg/kg, time 18.0 day
[23] = target: Voltage-gated inwardly rectifying potassium channel KCNH2 (Homo sapiens, UniProt Q12809); assay: Inhibition of hERG transfected in HEK293 cells by whole cell patch-clamp method; assay type: toxicity, cell-based
Voltage-gated inwardly rectifying potassium channel KCNH2, sequence (Q12809 whole entry): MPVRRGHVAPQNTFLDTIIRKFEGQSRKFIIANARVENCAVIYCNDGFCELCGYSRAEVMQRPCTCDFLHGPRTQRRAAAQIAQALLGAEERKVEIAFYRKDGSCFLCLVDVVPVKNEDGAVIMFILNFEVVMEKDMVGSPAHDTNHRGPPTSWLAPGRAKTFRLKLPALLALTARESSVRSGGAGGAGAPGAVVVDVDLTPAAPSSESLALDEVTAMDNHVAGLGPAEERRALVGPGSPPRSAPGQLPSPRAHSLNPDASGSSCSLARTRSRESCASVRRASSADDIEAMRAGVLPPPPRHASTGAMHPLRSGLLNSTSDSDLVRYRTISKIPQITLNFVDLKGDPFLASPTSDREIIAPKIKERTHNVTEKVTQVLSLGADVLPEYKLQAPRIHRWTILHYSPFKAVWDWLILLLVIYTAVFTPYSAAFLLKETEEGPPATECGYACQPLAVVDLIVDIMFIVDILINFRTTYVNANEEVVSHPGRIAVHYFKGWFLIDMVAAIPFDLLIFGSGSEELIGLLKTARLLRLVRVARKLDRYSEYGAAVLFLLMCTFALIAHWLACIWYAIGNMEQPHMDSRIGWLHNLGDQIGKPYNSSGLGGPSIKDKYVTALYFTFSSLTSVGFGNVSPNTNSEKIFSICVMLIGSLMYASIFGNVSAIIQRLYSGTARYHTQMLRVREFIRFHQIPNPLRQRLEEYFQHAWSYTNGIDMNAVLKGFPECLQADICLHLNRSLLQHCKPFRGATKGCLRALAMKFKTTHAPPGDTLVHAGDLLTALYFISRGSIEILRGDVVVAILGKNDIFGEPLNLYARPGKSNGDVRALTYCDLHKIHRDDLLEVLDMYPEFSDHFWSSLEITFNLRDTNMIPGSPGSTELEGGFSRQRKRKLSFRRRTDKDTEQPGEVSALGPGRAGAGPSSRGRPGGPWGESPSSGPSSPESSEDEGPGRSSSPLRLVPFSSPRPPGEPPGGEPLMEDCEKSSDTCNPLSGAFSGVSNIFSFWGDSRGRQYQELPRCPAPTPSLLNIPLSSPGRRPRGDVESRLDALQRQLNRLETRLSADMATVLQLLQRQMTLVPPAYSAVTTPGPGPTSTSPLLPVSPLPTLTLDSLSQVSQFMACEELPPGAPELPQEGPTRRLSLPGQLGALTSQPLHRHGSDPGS

[24] = Cardiotoxicity in Beagle dog assessed as QTcF prolongation upto 100 mg/kg, po bid measured for 24 hrs; assay type: toxicity, organism-based, Canis lupus familiaris; conditions: in vivo
[25] = Genotoxicity in Salmonella typhimurium TA100 at 23 to 750 ug in absence of S9 fraction by bacterial reverse mutation test; assay type: toxicity, Salmonella enterica subsp. enterica serovar Typhimurium; conditions: in vivo; dose 23-750 µg
[26] = Genotoxicity in Salmonella typhimurium TA98 at 47 to 1500 ug in presence of S9 fraction by bacterial reverse mutation test; assay type: toxicity, subcellular, Salmonella enterica subsp. enterica serovar Typhimurium; conditions: dose 47-1500 µg
[27] = Genotoxicity in Salmonella typhimurium TA1537 at 47 to 1500 ug in presence of S9 fraction by bacterial reverse mutation test; assay type: toxicity, subcellular, Salmonella enterica subsp. enterica serovar Typhimurium; conditions: dose 47-1500 µg
[28] = Genotoxicity in Salmonella typhimurium TA1537 at 23 to 750 ug in absence of S9 fraction by bacterial reverse mutation test; assay type: toxicity, Salmonella enterica subsp. enterica serovar Typhimurium; conditions: in vivo; dose 23-750 µg
[29] = Toxicity in CHL cells assessed as chromosomal aberration at 30 to 50 ug/ml incubated for 24 hrs in presence of S9 fraction; assay type: subcellular, Cricetulus griseus; conditions: chinese hamster, s9, 24 h, dose 30-50 µg/ml
[30] = Toxicity in CHL cells assessed as chromosomal aberration at 30 to 50 ug/ml incubated for 24 hrs in absence of S9 fraction; assay type: cell-based, Cricetulus griseus; conditions: chinese hamster, dose 30-50 µg/ml
[31] = Cmax in human at 30 […], po administered as single dose and measured upto 144 hrs; assay type: ADME, organism-based; conditions: in vivo
[32] = Cmax in human at 200 […], po administered as single dose and measured upto 144 hrs; assay type: ADME, organism-based; conditions: in vivo
[33] = Cmax in human at 1600 […], po administered as single dose and measured upto 144 hrs; assay type: ADME, organism-based; conditions: in vivo
[34] = Tmax in human at 600 […], po administered as single dose and measured upto 144 hrs; assay type: ADME, organism-based; conditions: in vivo
[35] = Tmax in human at 1600 […], po administered as single dose and measured upto 144 hrs; assay type: ADME, organism-based; conditions: in vivo
[36] = AUClast in human at 30 mg/kg, po administered as single dose and measured upto 144 hrs; assay type: ADME, organism-based; conditions: in vivo
[37] = AUClast in human at 60 mg/kg, po administered as single dose and measured upto 144 hrs; assay type: ADME, organism-based; conditions: in vivo
[38] = AUClast in human at 100 […], po administered as single dose and measured upto 144 hrs; assay type: ADME, organism-based; conditions: in vivo
[39] = AUClast in human at 400 mg/kg, po administered as single dose and measured upto 144 hrs; assay type: ADME, organism-based; conditions: in vivo
[40] = AUClast in human at 1600 mg/kg, po administered as single dose and measured upto 144 hrs; assay type: ADME, organism-based; conditions: in vivo
[41] = Elimination half life in human at 100 […], po administered as single dose and measured upto 144 hrs; assay type: ADME, organism-based; conditions: in vivo, read-out: beta t1/2 (converted)
[42] = Toxicity in Beagle dog assessed as development-limiting toxicity at 100 mg/kg, po bid administered 2 doses at 4 hrs interval and measured on day 1,14 and 28; assay type: organism-based, Canis lupus familiaris; conditions: in vivo, 672 h, time 28 day

In the case of `Cc1ccc(NC(=O)C[C@H](CCC(=O)O)c2noc([C@H]3C[C@@H](CC(C)(C)C)C3)c2C2CC2)c(Cl)c1`, the remaining at 1 h, 5 µM [1] is reported as 73%, the clearance [2] is reported as 1.83 mL/min/kg and the Vd [3] is reported as 0.34 L/kg. For the same compound, the AUC(0-inf) [4] was 173 µM·h, the MRT [5] was 5.8 h and the bioavailability [6] was 64%. The Selectivity ratio [7] was greater than 100, the Selectivity ratio [8] was greater than 100 and the Selectivity ratio [9] was greater than 100. The Selectivity ratio [10] was greater than 100, the Selectivity ratio [11] was greater than 100 and the Selectivity ratio [12] was greater than 100. It also gave a Selectivity ratio [13] greater than 100, a Selectivity ratio [14] greater than 100 and an IC50 (Adenosine receptor A1) greater than 10 µM. It also gave an IC50 [15] greater than 10 µM, an IC50 [16] greater than 10 µM and an IC50 [17] greater than 10 µM. It also gave an IC50 (D(1A) dopamine receptor) of 6.2 µM, an IC50 (Histamine H2 receptor) greater than 10 µM and an IC50 [18] greater than 10 µM. For the same compound, the IC50 [19] was greater than 10 µM, the IC50 [20] was greater than 10 µM and the IC50 (Cytochrome P450 2C19) was greater than 10 µM. For the same compound, the IC50 (Cytochrome P450 3A4 [21]) was greater than 10 µM, the IC50 (Cytochrome P450 3A4 [22]) was greater than 10 µM and the Activity (Mus musculus) was “Active”. For the same compound, the IC50 [23] was 7.4 µM, the Activity [24] was “Non-Toxic” and the Activity [25] was “Non-Toxic”. For the same compound, the Activity [26] was “Non-Toxic”, the Activity [27] was “Non-Toxic” and the Activity [28] was “Non-Toxic”. For the same compound, the Activity [29] was “Non-Toxic”, the Activity [30] was “Non-Toxic” and the Cmax [31] was 1220 ng/mL. It also gave a Cmax [32] of 8790 ng/mL, a Cmax [33] of 60700 ng/mL and a Tmax [34] of 3 h. It also gave a Tmax [35] of 3.54 h, an AUC(0-t) at 144 h [36] of 6030 ng·h/mL and an AUC(0-t) at 144 h [37] of 11000 ng·h/mL. The AUC(0-t) at 144 h [38] was 21200 ng·h/mL, the AUC(0-t) at 144 h [39] was 94300 ng·h/mL and the AUC(0-t) at 144 h [40] was 371000 ng·h/mL. The half-life [41] was 13.2 h and the Activity [42] was “Non-Toxic”.
